Source: patent US20070155795A1, “MUSCARINIC AGONISTS” (ACADIA Pharmaceuticals Inc., priority 2000, published 2007)

Key:
[1] = in vivo; cited from earlier work
[2] = molecular target: T1, m1 muscarinic receptor subtype (Homo sapiens, UniProt P11229); test: R-SAT assay, muscarinic receptor subtype m1; type: cell-based; conditions: transfected NIH-3T3 cells, 5 days; for m1 % Eff: relative to maximum response to carbachol; for EC50: read-out: m1 pEC50 (converted)
T1 construct: expressed in transfected cells; host or cells: NIH-3T3 (ATCC CRL 1658)
T1 sequence (P11229 1-460): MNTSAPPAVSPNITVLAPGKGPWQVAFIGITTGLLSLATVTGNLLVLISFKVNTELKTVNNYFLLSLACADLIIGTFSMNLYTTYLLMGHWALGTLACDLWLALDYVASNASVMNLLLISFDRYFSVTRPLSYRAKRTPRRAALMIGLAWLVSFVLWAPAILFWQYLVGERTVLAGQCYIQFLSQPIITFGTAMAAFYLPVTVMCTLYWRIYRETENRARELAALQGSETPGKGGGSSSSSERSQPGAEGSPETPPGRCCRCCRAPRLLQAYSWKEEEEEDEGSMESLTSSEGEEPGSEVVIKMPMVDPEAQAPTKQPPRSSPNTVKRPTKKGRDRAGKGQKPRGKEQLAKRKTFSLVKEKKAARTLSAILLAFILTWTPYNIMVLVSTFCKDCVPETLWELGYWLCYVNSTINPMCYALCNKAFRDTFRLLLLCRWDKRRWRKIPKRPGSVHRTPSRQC
Experimental: (§1) Transfected cells were grown in the presence of between 1 nM and 40 μM of the test compound for 5 days. On day 5, the cells were lysed using 0.5% Nonidet-P and β-galactosidase expression was quantified using the chromogenic substrate o-nitrophenyl-β-D-galactoside (ONGP).
(§2) Data were normalized relative to the maximum response of the cells to the muscarinic agonist carbachol, and the following equation was fitted to the data: • response=minimum+(maximum−minimum)/(1+(EC50/[ligand])) • Where [ligand]=ligand concentration. • % Efficacy was defined as: • (maximum−minimum)/(maximum response of cells to carbachol). • pEC50=−log (EC50). • Where data gave a bell-shaped curve, “maximum” was defined as the highest observed response.

[3] = molecular target: T2, m3 muscarinic receptor subtype (Homo sapiens, UniProt P20309); test: R-SAT assay, muscarinic receptor subtype m3; type: cell-based; conditions: transfected NIH-3T3 cells, 5 days, relative to maximum response to carbachol
T2 construct: expressed in transfected cells; host or cells: NIH-3T3 (ATCC CRL 1658)
Experimental: (§3) Screening Of Test Compounds In An Assay Using Muscarinic Receptor Subtypes m1, m2, m3, m4 and m5. The m1, m2, m3, m4 and m5 muscarinic receptor subtypes were cloned substantially as described by Bonner et al., Science […] and Bonner et al., Neuron 1:403 (1988). R-SAT assays were carried out substantially as described in U.S. Pat. Nos. 5,707,798, 5,912,132, and 5,955,281, and by Braüner-Osborne & Brann, Eur. J. Pharmacol. 295:93 (1995). NIH-3T3 cells (available from the American Type Culture Collection as ATCC CRL 1658) were transfected with plasmid DNA encoding the m1, m2, m3, m4 or m5 receptors and plasmid DNA encoding β-galactosidase. Transfected cells were grown in the presence of between 1 nM and 40 μM of the test compound for 5 days. On day 5, the cells were lysed using 0.5% Nonidet-P and β-galactosidase expression was quantified using the chromogenic substrate o-nitrophenyl-β-D-galactoside (ONGP).
as §2

[4] = molecular target: T3, m5 muscarinic receptor subtype (Homo sapiens, UniProt P08912); test: R-SAT assay, muscarinic receptor subtype m5; type: cell-based; conditions: transfected NIH-3T3 cells, 5 days; for m5 % Eff: relative to maximum response to carbachol
T3 construct: expressed in transfected cells; host or cells: NIH-3T3 (ATCC CRL 1658)
T3 sequence (P08912 1-532): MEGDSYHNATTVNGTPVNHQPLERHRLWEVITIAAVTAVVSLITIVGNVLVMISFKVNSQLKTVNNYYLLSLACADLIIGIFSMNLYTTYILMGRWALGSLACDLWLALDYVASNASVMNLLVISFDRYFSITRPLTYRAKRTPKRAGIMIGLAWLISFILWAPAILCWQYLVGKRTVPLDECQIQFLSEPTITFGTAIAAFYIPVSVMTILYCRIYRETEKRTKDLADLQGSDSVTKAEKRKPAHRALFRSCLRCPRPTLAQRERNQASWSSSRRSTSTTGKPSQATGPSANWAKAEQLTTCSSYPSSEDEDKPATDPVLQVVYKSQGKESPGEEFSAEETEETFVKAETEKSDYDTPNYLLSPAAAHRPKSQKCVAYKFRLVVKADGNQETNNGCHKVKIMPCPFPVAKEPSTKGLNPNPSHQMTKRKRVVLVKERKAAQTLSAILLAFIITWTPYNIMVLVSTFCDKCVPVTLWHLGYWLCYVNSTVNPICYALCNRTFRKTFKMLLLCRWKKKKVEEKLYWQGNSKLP
Experimental: as §3, §2

[5] = molecular target: T4, m4 muscarinic receptor subtype (Homo sapiens, UniProt P08173); test: R-SAT assay, muscarinic receptor subtype m4; type: cell-based; conditions: transfected NIH-3T3 cells, 5 days; for m4 % Eff: relative to maximum response to carbachol; for EC50: read-out: m4 pEC50 (converted)
T4 construct: expressed in transfected cells; host or cells: NIH-3T3 (ATCC CRL 1658)
T4 sequence (P08173 1-479): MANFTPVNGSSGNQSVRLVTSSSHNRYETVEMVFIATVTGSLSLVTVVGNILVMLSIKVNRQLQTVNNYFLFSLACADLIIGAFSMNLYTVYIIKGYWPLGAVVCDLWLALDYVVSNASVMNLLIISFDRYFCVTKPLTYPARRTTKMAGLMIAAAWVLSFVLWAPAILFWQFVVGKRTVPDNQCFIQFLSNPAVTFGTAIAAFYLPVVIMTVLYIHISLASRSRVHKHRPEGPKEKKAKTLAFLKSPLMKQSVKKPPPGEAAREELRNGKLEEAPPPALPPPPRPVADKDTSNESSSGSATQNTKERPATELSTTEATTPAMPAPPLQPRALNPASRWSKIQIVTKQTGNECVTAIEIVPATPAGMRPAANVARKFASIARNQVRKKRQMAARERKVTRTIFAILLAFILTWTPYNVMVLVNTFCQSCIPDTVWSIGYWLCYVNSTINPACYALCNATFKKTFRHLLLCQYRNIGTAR
Experimental: as §1, §2

[6] = molecular target: T5, m2 muscarinic receptor subtype (Homo sapiens, UniProt P08172); test: R-SAT assay, muscarinic receptor subtype m2; type: cell-based; conditions: transfected NIH-3T3 cells, 5 days, relative to maximum response to carbachol
T5 construct: expressed in transfected cells; host or cells: NIH-3T3 (ATCC CRL 1658)
T5 sequence (P08172 1-466): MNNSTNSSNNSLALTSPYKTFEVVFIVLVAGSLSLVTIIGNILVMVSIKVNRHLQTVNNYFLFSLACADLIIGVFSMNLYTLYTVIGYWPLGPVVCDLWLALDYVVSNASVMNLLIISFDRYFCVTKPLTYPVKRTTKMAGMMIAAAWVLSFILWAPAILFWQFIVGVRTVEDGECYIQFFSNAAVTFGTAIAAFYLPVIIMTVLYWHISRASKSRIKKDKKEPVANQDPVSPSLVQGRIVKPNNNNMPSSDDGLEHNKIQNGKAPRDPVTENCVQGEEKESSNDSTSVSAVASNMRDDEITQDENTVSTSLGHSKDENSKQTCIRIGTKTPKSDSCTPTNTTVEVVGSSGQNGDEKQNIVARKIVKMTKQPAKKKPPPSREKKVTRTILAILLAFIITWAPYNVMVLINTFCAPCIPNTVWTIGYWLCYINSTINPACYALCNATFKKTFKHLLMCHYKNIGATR
Experimental: as §3, §2

Glaucomatous Monkeys = test: Intraocular pressure in glaucomatous monkeys (laser-induced unilateral ocular hypertension); type: in vivo, cynomolgus monkeys (Macacca fascicularis); conditions: conscious monkeys
Experimental: Effects of Compound 35AKU-21 on Intaocular Pressure in Primates. All studies were conducted in fully conscious female cynomolgus monkeys (Macacca fascicularis) weighing 3-4 kg. Unilateral ocular hypertension was produced by argon laser photocoagulation to the mid-trabecular meshwork (Sawyer & McGuigan, Invest. Ophthalmol. Vis. Sci. 29:81(1988)).
Animals were trained to allow measuring intraocular pressure (IOP) with a model 30 Classic pneumatonometer (Mentor O&O Co.). Throughout each study, monkeys sat in specially designed chairs (Primate Products, San Francisco) and fed fruits and juices as needed.
The drug was administered topically. The drug was formulated in an aqueous solution such as distilled water, saline or citrate buffer at a pH 5-7 and applied unilaterally as a 35 μL drop; the contralateral eye received an equal volume of saline (or vehicle). Two baseline measurements were made prior to administration of the drug, followed by periodic measurements up to 6 hours post drug administration.

T2 sequence (P20309 whole entry): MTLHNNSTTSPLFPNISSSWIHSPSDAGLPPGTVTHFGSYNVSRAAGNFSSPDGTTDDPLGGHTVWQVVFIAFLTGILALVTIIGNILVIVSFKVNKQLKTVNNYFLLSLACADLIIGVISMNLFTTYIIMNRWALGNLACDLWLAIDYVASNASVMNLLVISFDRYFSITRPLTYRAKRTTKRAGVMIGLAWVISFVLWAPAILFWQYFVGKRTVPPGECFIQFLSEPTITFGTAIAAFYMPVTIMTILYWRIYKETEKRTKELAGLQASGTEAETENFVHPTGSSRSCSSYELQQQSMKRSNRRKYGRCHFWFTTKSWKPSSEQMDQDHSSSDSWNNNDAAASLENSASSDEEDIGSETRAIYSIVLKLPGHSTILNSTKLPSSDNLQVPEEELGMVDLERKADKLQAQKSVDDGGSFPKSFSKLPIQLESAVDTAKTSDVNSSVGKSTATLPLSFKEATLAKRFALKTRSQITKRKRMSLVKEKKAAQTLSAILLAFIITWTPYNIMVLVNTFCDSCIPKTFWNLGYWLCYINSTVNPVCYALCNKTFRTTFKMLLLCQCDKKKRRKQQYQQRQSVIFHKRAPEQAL

SMILES | m1 pEC50 [2] | m1 % Eff [2] [%] | m4 % Eff [5] | EC50 [2] [nM] | EC50 ([4]; read-out: m5 pEC50 (converted)) [nM] | EC50 [5] [nM] | m4 pEC50 [5] | patients with elevated liver transaminases (hepatotoxicity) [1] | m3 % Eff [3] | m5 % Eff [4] | m2 % Eff [6] | % IOP Change (Glaucomatous Monkeys; 1 HR after topical 35 μL drop) [%] | % IOP Change (Glaucomatous Monkeys; 2 HR after topical 35 μL drop) [%] | % IOP Change (Glaucomatous Monkeys; 4 HR after topical 35 μL drop) [%] | % IOP Change (Glaucomatous Monkeys; 6 HR after topical 35 μL drop) [%]
Nc1c2c(nc3ccccc13)CCCC2 [tacrine] | – | – | – | – | – | – | – | about 30% | – | – | – | – | – | – | –
CCCCC1CCN(CCCc2nc3c(C)cccc3[nH]2)CC1 [Example 32, 4-Methyl-2-(3-(4-n-butylpiperidine)-1-yl-propyl)-1H-benzoimidazole] | 6.4 | 52 | no response (No response: Efficacy <25% maximum response of carbachol. This level of activity is not considered significantly different to no response.) | – | – | – | – | – | no response (No response: Efficacy <25% maximum response of carbachol. This level of activity is not considered significantly different to no response.) | no response (No response: Efficacy <25% maximum response of carbachol. This level of activity is not considered significantly different to no response.) | no response (No response: Efficacy <25% maximum response of carbachol. This level of activity is not considered significantly different to no response.) | – | – | – | –
CCCCC1CCN(CCCc2noc3ccccc23)CC1 [Example 24, 3-(3-(4-n-Butylpiperidine)-1-yl-propyl)-benzo[d]isoxazole] | – | 75 | 41% | 126 | – | 501 | – | – | no response (No response: Efficacy <25% maximum response of carbachol. This level of activity is not considered significantly different to no response.) | no response (No response: Efficacy <25% maximum response of carbachol. This level of activity is not considered significantly different to no response.) | no response (No response: Efficacy <25% maximum response of carbachol. This level of activity is not considered significantly different to no response.) | – | – | – | –
CCCCC1CCN(CCCn2ncc3ccccc32)CC1 [Example 19, 1-(3-(4-n-Butylpiperidine)-1-yl-propyl)-4H-indazole] | 7.3 | 86 | 70% | – | – | – | 6.5 | – | no response (No response: Efficacy <25% maximum response of carbachol. This level of activity is not considered significantly different to no response.) | no response (No response: Efficacy <25% maximum response of carbachol. This level of activity is not considered significantly different to no response.) | no response (No response: Efficacy <25% maximum response of carbachol. This level of activity is not considered significantly different to no response.) | −9.3 | −21.3 | −25.9 | −29.2

More lines, main results first:

m1 pEC50 [2] | m1 % Eff [2] [%] | m4 % Eff [5] | EC50 [2] [nM] | EC50 ([4]; read-out: m5 pEC50 (converted)) [nM] | EC50 [5] [nM] | m4 pEC50 [5] | SMILES | patients with elevated liver transaminases (hepatotoxicity) [1] | m3 % Eff [3] | m5 % Eff [4] | m2 % Eff [6] | % IOP Change (Glaucomatous Monkeys; 1 HR after topical 35 μL drop) [%] | % IOP Change (Glaucomatous Monkeys; 2 HR after topical 35 μL drop) [%] | % IOP Change (Glaucomatous Monkeys; 4 HR after topical 35 μL drop) [%] | % IOP Change (Glaucomatous Monkeys; 6 HR after topical 35 μL drop) [%]
– | 81 | 69% | 126 | > 3160 | 631 | – | CCCC1CCN(CCCn2ncc3ccccc32)CC1 [Example 41, 1-(3-(4-Propylpiperidine)-1-yl-propyl)-1H-indazole] | – | no response (No response: Efficacy <25% maximum response of carbachol. This level of activity is not considered significantly different to no response.) | 31% | no response (No response: Efficacy <25% maximum response of carbachol. This level of activity is not considered significantly different to no response.) | – | – | – | –
6.3 | 59 | 39% | – | – | – | 6.0 | CCCCC1CCN(CCCn2nnc3ccccc32)CC1 [Example 61, 1-[3-(4-Butylpiperidin-1-yl)-propyl]-1H-benzotriazole] | – | no response (No response: Efficacy <25% maximum response of carbachol. This level of activity is not considered significantly different to no response.) | no response (No response: Efficacy <25% maximum response of carbachol. This level of activity is not considered significantly different to no response.) | no response (No response: Efficacy <25% maximum response of carbachol. This level of activity is not considered significantly different to no response.) | – | – | – | –
